Experimental data as given in ChEMBL document CHEMBL6078727 (Bioorg Med Chem, 2025).
Activity calls are given as the source filed them. The rule behind the calls is not given here.

Experiments:
[1] = (§1) Induction of mitochondrial uncoupling activity in rat L6 myoblast cells assessed as increase in oxygen consumption rate by measuring ratio of integrated area under OCR dose curve above baseline relative to BAM15 up to 200 uM over 90 mins; assay type: functional
[2] = Induction of mitochondrial uncoupling activity in rat L6 myoblast cells assessed as increase in oxygen consumption rate measured over 90 mins; assay type: functional, cell-based
[3] = Cmax in C57BL/6J mouse at 10 mg/kg, po administrated via oral gavage by LC-MS/MS analysis; assay type: ADME, organism-based; conditions: in vivo
[4] = Half-life in male C57BL/6J mouse plasma at 10 mg/kg, po administrated via oral gavage by LC-MS/MS analysis; assay type: ADME, organism-based; conditions: in vivo
L6 = test: as §1; assay type: functional

For `CC(C)(C)OC(=O)NNc1nc2nonc2nc1Nc1cccc(Cl)c1`, the Activity [1] was 78% and the EC50 [2] was 1.6 µM.
For `O=C(ONc1nc2nonc2nc1Nc1ccccc1F)c1cc(C(F)(F)F)ccc1F`, the Activity [1] was 75% and the EC50 [2] was 1.4 µM.
With `Cc1cc(C)cc(C(=O)ONc2nc3nonc3nc2Nc2ccccc2F)c1` the Activity [1] was 9% and the EC50 [2] was 1.49 µM.
With `CCCCC(=O)NNc1nc2nonc2nc1Nc1ccccc1F` the Activity [1] was 71% and the EC50 [2] was 14.2 µM.
Work on `CCCC(=O)NNc1nc2nonc2nc1Nc1ccccc1F` yielded an Activity [1] of 31% and an EC50 [2] of over 100 µM.
`CC(C)(C)OC(=O)NNc1nc2nonc2nc1Nc1ccccc1Cl` showed an Activity [1] of 87%, a Cmax ([3]; po, 10 mg/kg) of 170 nM and an EC50 [2] of 4.6 µM. For the same compound, the t1/2 [4] was 108 min.
With `ONc1nc2nonc2nc1Nc1ccc(-c2ccc(F)cc2)cc1` the Activity (L6) was “inactive”.
Work on `O=C(ONc1nc2nonc2nc1Nc1ccccc1F)c1ccccc1F` yielded an Activity [1] of 45% and an EC50 [2] of over 100 µM.
With `ONc1nc2nonc2nc1Nc1ccccc1F` the Activity [1] was 41% and the EC50 [2] was 87.6 µM.
`CC(C)(C)OC(=O)NNc1nc2nonc2nc1Nc1cccc(F)c1` gave an Activity [1] of 32% and an EC50 [2] of 1.1 µM.
Compound `O=C(NNc1nc2nonc2nc1Nc1ccccc1F)c1cccc(F)c1` has an Activity [1] of 8%.
With `NNc1nc2nonc2nc1Nc1ccccc1F` the Activity (L6) was “inactive”.
`CNNc1nc2nonc2nc1Nc1ccccc1F` showed an Activity [1] of 15% and an EC50 [2] of 77 µM.
`O=C(ONc1nc2nonc2nc1Nc1ccccc1F)c1ccc(F)cc1F` showed an Activity [1] of 97% and an EC50 [2] of 1.36 µM.
Work on `CC(C)(C)OC(=O)NNc1nc2nonc2nc1Nc1ccccc1F` yielded an Activity [1] of 103%, a Cmax ([3]; po, 10 mg/kg) of 220 nM and an EC50 [2] of 4.6 µM. For the same compound, the t1/2 [4] was 27 min.
`O=C(ONc1nc2nonc2nc1Nc1ccccc1F)c1cccc(C(F)(F)F)c1` showed an Activity [1] of 71% and an EC50 [2] of 1.58 µM.
Compound `O=C(ONc1nc2nonc2nc1Nc1ccccc1F)c1cccc(F)c1` has an Activity [1] of 102% and an EC50 [2] of 0.71 µM.
In the case of `CC(C)(C)C(=O)ONc1nc2nonc2nc1Nc1ccccc1F`, the Activity [1] is reported as 86% and the EC50 [2] is reported as 5.2 µM.
Work on `O=C(ONc1nc2nonc2nc1Nc1ccccc1F)c1ccc(OC(F)(F)F)cc1` yielded an Activity [1] of 118%, a Cmax ([3]; C57BL/6J) of 2 nM and an EC50 [2] of 0.34 µM. It also gave a t1/2 [4] of 15 min.
For `Cc1ccc(Nc2nc3nonc3nc2NO)cc1`, the Activity (L6) was “inactive”.
Compound `CCOC(=O)NNc1nc2nonc2nc1Nc1ccccc1F` has an Activity [1] of 65% and an EC50 [2] of 16.3 µM.
With `O=C(NNc1nc2nonc2nc1Nc1ccccc1F)NC1CCCC1` the Activity [1] was 23% and the EC50 [2] was 1.1 µM.
With `CN(Nc1nc2nonc2nc1Nc1ccccc1F)C(=O)OC(C)(C)C` the Activity [1] was 65% and the EC50 [2] was 8.4 µM.
`CC(C)COC(=O)NNc1nc2nonc2nc1Nc1ccccc1F` gave an Activity [1] of 88%, a Cmax ([3]; po, 10 mg/kg) of 6600 nM and an EC50 [2] of 1.1 µM. For the same compound, the t1/2 [4] was 35.4 min.
`CCCCOC(=O)NNc1nc2nonc2nc1Nc1ccccc1F` gave an Activity [1] of 54% and an EC50 [2] of 1.2 µM.
For `O=C(NNc1nc2nonc2nc1Nc1ccccc1F)c1ccc(OC(F)(F)F)cc1`, the Activity [1] was 6% and the EC50 [2] was 4.3 µM.
Work on `O=C(ONc1nc2nonc2nc1Nc1ccccc1F)c1ccccc1C(F)(F)F` yielded an Activity [1] of 65% and an EC50 [2] of 6.56 µM.
In the case of `ONc1nc2nonc2nc1Nc1cc(F)cc(F)c1`, the Activity (L6) is reported as “inactive”.
